According to PMC4261083, “An atypical residue in the pore of Varroa destructor GABA-activated RDL receptors affects picrotoxin block and thymol modulation” (Insect Biochemistry and Molecular Biology, 2014):
Residue numbers refer to the chain shown, from its start.

Tests used:
Assay in all cases: GABA activation of RDL receptors, two electrode voltage clamp in Xenopus oocytes
Assay type in all cases: cell-based
[1] = target: T1, wild type Drosophila RDL receptor (Drosophila melanogaster, UniProt P25123)
T1 construct: expressed in transfected cells; host or cells: Xenopus laevis oocytes injected with cRNA
T1 sequence (P25123 45-606): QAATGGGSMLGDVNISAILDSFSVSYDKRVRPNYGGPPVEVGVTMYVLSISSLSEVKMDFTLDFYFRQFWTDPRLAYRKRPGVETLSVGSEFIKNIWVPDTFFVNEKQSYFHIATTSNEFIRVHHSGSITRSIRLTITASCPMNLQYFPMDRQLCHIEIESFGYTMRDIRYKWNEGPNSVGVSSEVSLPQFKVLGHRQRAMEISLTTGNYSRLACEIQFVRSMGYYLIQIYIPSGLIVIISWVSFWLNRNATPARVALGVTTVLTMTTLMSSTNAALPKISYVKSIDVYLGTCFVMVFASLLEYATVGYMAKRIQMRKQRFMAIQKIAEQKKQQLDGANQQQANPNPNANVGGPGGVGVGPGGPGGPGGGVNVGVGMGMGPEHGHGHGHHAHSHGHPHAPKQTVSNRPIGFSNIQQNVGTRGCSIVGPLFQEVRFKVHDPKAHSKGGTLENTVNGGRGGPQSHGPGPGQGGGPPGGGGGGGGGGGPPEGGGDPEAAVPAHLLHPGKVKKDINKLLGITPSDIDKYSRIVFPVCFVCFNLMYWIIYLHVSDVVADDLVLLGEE
Procedure: (§1) X. laevis oocyte-positive females were purchased from NASCO (Fort Atkinson, Wisconsin, USA) and maintained according to standard methods. Harvested stage V-VI Xenopus oocytes were washed in four changes of ND96 (96 mM NaCl, 2 mM KCl, 1 mM MgCl2, 1 mM CaCl2, 5 mM HEPES, pH 7.5), de-folliculated in 1.5 mg ml^−1 collagenase Type 1A for approximately 2 h, washed again in four changes of ND96 and stored in ND96 containing 2.5 mM sodium pyruvate, 0.7 mM theophylline and […].
(§2) Site directed mutagenesis was performed with the QuikChange mutagenesis kit (Agilent, La Jolla, CA). cRNA was transcribed in vitro from linearised pGEMHE cDNA template using the mMessage mMachine T7 Transcription kit (Ambion, Austin, Texas, USA). Stage V and VI oocytes were injected with 5 ng cRNA, incubated at 18 °C, and currents recorded 18–24 h post-injection.
(§3) Currents were recorded at 5 kHz and filtered at a frequency of 1 kHz. Micro-electrodes were fabricated from borosilicate glass (GC120TF-10, Harvard Apparatus, Edenbridge, Kent, UK) using a one stage horizontal pull (P-87, Sutter Instrument Company, California, USA) and filled with 3 M KCl. […] Oocytes were perfused with ND96 at a constant rate of 12 ml min^−1. Drug application was via a simple gravity fed system calibrated to run at the same rate.
(§4) Analysis and curve fitting was performed using Prism v5 (GraphPad Software, San Diego, California, USA). Concentration-response data for each oocyte was normalised to the maximum current for that oocyte. The mean and S.E.M. for a series of oocytes were fitted to the four parameter logistic equation in Prism.

[2] = target: T2, 4M2 mutant Drosophila RDL receptor (N-7′H, T6′M, A20′S and A21′Q) (Drosophila melanogaster, UniProt P25123, A319S/A320Q/N292H/T305M); settings: 4M2 RDL
T2 construct: expressed in transfected cells; host or cells: Xenopus laevis oocytes injected with cRNA
T2 sequence (P25123 45-606 N292H/T305M/A319S/A320Q): T1 sequence (P25123 45-606) with N248H, T261M, A275S, A276Q
Procedure: as §1, §2, §3, §4

[3] = target: T3, N-7′H mutant Drosophila RDL receptor (Drosophila melanogaster, UniProt P25123, N292H); settings: N-7′H RDL
T3 construct: expressed in transfected cells; host or cells: Xenopus laevis oocytes injected with cRNA
T3 sequence (P25123 45-606 N292H): T1 sequence (P25123 45-606) with N248H
Procedure: as §1, §2, §3, §4

Compound: NCCCC(=O)O [GABA]
- GABA nH (Hill slope) [1]: 1.6 ± 0.5
- GABA nH (Hill slope) [2]: 1.0 ± 0.3
- GABA nH (Hill slope) [3]: 2.5 ± 0.5
